According to patent publication US20250197392A1, “CRYSTALLINE FORMS OF AN INHIBITOR OF THE MENIN/MLL INTERACTION” (JANSSEN PHARMACEUTICA NV, priority 2022, published 2025):

Legend:
[1] = system: KO-52 cells; assay: Proliferation assay (spheroid assay) KO-52 control cell line; type: cell-based, human; conditions: 8 days, MLL wildtype control cell line; read-out: spheroid assay_KO-52 IC50
Method: (§1) The anti-proliferative effect of menin/MLL protein/protein interaction inhibitor test compounds was assessed in human leukemia cell lines. The cell line MOLM14 harbors a MLL translocation and expresses the MLL fusion protein MLL-AF9, respectively, as well as the wildtype protein from the second allele. OCI-AML3 cells that carry the NPM1c gene mutation were also tested. […] KO-52 was used as a control cell line containing two MLL (KMT2A) wildtype alleles in order to exclude compounds that display general cytotoxic effects.
(§2) MOLM14 cells were cultured in RPMI-1640 (Sigma Aldrich) supplemented with 10% heat-inactivated fetal bovine serum (HyClone), 2 mM L-glutamine (Sigma Aldrich) and 50 μg/ml gentamycin (Gibco). […]
(§3) In order to assess the anti-proliferative effects, 200 MOLM14 cells, 200 OCI-AML3 cells or 300 KO-52 cells were seeded in 200 μl media per well in 96-well round bottom, ultra-low attachment plates (Costar, catalogue number 7007). […] Spheroid like growth was measured in real-time by live-cell imaging (IncuCyteZOOM, Essenbio, 4× objective) acquiring images at day 8. Confluence (%) as a measure of spheroid size was determined using an integrated analysis tool.
(§4) In order to determine the effect of the test compounds over time, the confluence in each well as a measure of spheroid size, was calculated. […]
(§5) Absolute IC50 values were calculated as percent change in confluence as follows: […]

[2] = system: OCI-AML3 cells; assay: Proliferation assay (spheroid assay) OCI-AML3; type: cell-based, human; conditions: 8 days, NPM1c mutated cell line; read-out: spheroid assay_OCI-AML3 IC50
Method: as §1, §2, §3, §4, §5

[3] = molecular target: Menin/MLL (terbium chelate-labeled menin, FITC-MBM1 peptide) (Homo sapiens (Human), UniProt O00255); assay: Menin/MLL homogenous time-resolved fluorescence (HTRF) assay; type: binding; conditions: 30 min incubation of compound with labeled menin
Method: To an untreated, white 384-well microtiter plate was added 40 nL 200× test compound in DMSO and 4 μL 2× terbium chelate-labeled menin (vide infra for preparation) in assay buffer (40 mM Tris·HCl, pH 7.5, 50 mM NaCl, 1 mM DTT (dithiothreitol) and 0.05% Pluronic F-127). After incubation of test compound and terbium chelate-labeled menin for 30 min at ambient temperature, 4 μL 2×FITC-MBM1 peptide (FITC-β-alanine-[…]-NH2) (“FITC” means fluorescein isothiocyanate) in assay buffer was added, the microtiter plate centrifuged at 1000 rpm for 1 min and the assay mixtures incubated for 15 min at ambient temperature. The relative amount of menin-FITC-MBM1 complex present in an assay mixture is determined by measuring the homogenous time-resolved fluorescence (HTRF) of the terbium/FITC donor/acceptor fluorphore pair using an EnVision microplate reader (ex. 337 nm/terbium em. 490 nm/FITC em. 520 nm) at ambient temperature. The degree of fluorescence resonance energy transfer (the HTRF value) is expressed as the ratio of the fluorescence emission intensities of the FITC and terbium fluorophores (F^em 520 nm/F^em 490 nm). […]
Compound potencies were determined by first calculating % inhibition at each compound concentration according to equation 1: […]

[4] = system: MEIS1 mRNA expression; assay: MEIS1 mRNA expression assay (Quantigene Singleplex) in MOLM14 cells; type: cell-based, human; conditions: 48 hours incubation
Method: MEIS1 mRNA expression upon treatment of compound was examined by Quantigene Singleplex assay (Thermo Fisher Scientific). This technology allows for direct quantification of mRNA targets using probes hybridizing to defined target sequences of interest and the signal is detected using a Multimode plate reader Envision (PerkinElmer). The MOLM14 cell line was used for this experiment. Cells were plated in 96-well plates at 3,750 cells/well in the presence of increasing concentrations of compounds. After incubation of 48 hours with compounds, cells were lysed in lysis buffer and incubated for 45 minutes at 55° C. Cell lysates were mixed with human MEIS1 specific capture probe or human RPL28 (Ribosomal Protein L28) specific probe as a normalization control, as well as blocking probes. Cell lysates were then transferred to the custom assay hybridization plate (Thermo Fisher Scientific) and incubated for 18 to 22 hours at 55° C. Subsequently, plates were washed to remove unbound materials followed by sequential addition of preamplifiers, amplifiers, and label probe. Signals (=gene counts) were measured with a Multimode plate reader Envision. IC50s were calculated by dose-response modelling using appropriate software. […] Fold changes were calculated by dividing the normalized values for the treated samples by the normalized values for the DMSO treated sample. […]

[5] = Dynamic vapor sorption (DVS) moisture sorption analysis; type: physicochemical; conditions: after 2 cycles of vapor adsorption/desorption
Method: The moisture sorption analysis (DVS) was performed using a ProUmid GmbH & Co. KG Vsorp Enhanced dynamic vapor sorption apparatus. The moisture profile was evaluated by monitoring vapor adsorption/desorption over the range of 0 to 90% relative humidity at 25° C. The sample weight equilibrium criteria were set at ≤0.010% change in 45 min with minimum and maximum time of acclimation at 50 min and 120 min, respectively. The moisture profile consisted of 2 cycles of vapor adsorption/desorption.

[6] = system: MOLM14 cells; assay: Proliferation assay (spheroid assay) MOLM14; type: cell-based, human; conditions: 8 days, MLL-AF9 cell line; read-out: spheroid assay_MOLM14 IC50
Method: as §1, §2, §3, §4, §5

Menin/MLL (terbium chelate-labeled menin, FITC-MBM1 peptide), sequence (O00255 other isoform, or with tags, fused parts or gaps): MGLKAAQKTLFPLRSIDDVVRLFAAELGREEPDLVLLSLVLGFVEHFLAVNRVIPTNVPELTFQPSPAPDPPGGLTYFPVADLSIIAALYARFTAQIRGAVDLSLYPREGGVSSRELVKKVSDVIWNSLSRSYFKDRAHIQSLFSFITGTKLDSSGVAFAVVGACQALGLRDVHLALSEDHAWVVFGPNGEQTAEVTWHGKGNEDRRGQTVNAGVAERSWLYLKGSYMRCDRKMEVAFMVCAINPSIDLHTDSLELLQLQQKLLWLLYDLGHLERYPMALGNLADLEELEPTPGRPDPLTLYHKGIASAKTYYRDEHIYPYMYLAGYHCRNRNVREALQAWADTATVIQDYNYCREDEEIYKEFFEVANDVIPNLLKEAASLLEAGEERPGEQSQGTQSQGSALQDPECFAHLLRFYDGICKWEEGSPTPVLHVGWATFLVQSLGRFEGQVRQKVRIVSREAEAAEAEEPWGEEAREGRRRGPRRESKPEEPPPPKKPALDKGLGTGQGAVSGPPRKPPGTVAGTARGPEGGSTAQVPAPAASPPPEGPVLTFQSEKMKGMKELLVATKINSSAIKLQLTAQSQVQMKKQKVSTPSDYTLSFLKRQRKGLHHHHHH

IC50 [2]: 70 nM
IC50 [3]: 0.024 nM
IC50 [4]: 11 nM
IC50 [6]: 13 nM
SMILES: CC(=O)N1CCC(CN2CC[C@@H](Cc3cn(-c4ccc(F)cc4C(=O)N(C)C(C)C)c4cncc(C)c34)C2)CC1 [Compound 51a]
IC50 [1]: 1200 nM
solid-state form stability after DVS test (XRPD) [5]: No indication of a solid-state form change was observed
